Data from patent US7534800B2, “7-azaindoles as inhibitors of c-Jun N-terminal kinases for the treatment of neurodegenerative disorders” (Eisai R & D Development Co., Ltd., priority 2002, dated 2009).

Each compound was assayed against JNK3 kinase (Homo sapiens, UniProt P53779) (assay: JNK3 SPA assay (phosphorylation of GST-c-Jun, [γ-33P] ATP)). Conditions: 3.33 μM ATP, GST-c-Jun substrate, 30 minutes at room temperature.
Type: biochemical
Experimental: JNK1, JNK27 JNK3—SPA Assay
A typical assay for testing the activity of compounds to inhibit JNK1, JNK2 and JNK3 enzymes is as follows: • 1. Compound is dissolved in DMSO to a convenient concentration and this is diluted in 10% DMSO to a five times concentrate of the desired starting concentration (frequently 1:100). • 2. 10 μl of 500 mM EDTA is added to alternative wells of the Opti-plate row, which will receive kinase reaction plus DMSO. This creates the negative control. • 3. For the JNK2 and JNK3 assay, compounds are prepared in six 2-fold dilutions with water and each concentration is tested in duplicate. For the JNK1 assay compounds are prepared in four 5-fold dilutions with water which are tested in triplicate. Controls are treated identically. • 4. 20 μl per well of each compound concentration is transferred to an Opti-plate, in duplicate. • 5. 30 μl (JNK2/3 SPA) or 50 μl (JNK1 SPA) of substrate solution (25 mM HEPES pH 7.5, 10 mM magnesium acetate with 3.33 μm ATP (JNK2/3) or 2 μM ATP (JNK1), approximately 7.5 kBq [γ-33P] ATP, GST-c-Jun, in water) is added to each well. • 6. 50 μl (JNK2/3 SPA) or 30 μl (JNK1 SPA) of kinase solution (JNK in 25 mM HEPES pH 7.5, 10 mM Mg Acetate) is added to each well.
• 7. The plate is incubated for 30 minutes at room temperature. • 8. 100 μl of bead/stop solution is added to each well (5 mg/ml glutathione-PVT-SPA beads, 40 µM ATP in PBS). • 9. Plates are sealed and incubated for 30 minutes at room temperature, centrifuged for 10 minutes at 2500 g and counted. • 10. The IC50 values are calculated as the concentration of the compound being tested at which the phosphorylation of c-Jun is decreased to 50% of the control value.

Sequence of JNK3 kinase (P53779 whole entry): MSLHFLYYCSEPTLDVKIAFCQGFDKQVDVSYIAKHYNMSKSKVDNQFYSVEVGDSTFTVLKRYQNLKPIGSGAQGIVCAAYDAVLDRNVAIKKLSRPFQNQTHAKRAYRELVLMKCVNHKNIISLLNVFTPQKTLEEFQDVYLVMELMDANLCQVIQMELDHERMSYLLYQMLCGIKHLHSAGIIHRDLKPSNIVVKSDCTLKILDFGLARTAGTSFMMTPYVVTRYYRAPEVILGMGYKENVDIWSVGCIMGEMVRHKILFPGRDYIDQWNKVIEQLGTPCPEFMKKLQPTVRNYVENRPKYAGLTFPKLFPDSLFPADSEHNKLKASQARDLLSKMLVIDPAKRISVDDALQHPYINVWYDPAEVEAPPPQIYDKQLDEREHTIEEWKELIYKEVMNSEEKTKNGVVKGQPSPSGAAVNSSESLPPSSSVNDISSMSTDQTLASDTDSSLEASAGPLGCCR

SMILES	IC50
O=C(NNc1ccccc1)c1c[nH]c2ncc(-c3cccc(F)c3)cc12	780 nM
C#CCNC(=O)c1c[nH]c2ncc(-c3cccc(F)c3)cc12	850 nM
C#CCNC(=O)c1c[nH]c2ncc(-c3ccc(N(C)C)cc3)cc12	520 nM
